Target: T1, CK1.2 (Trypanosoma brucei, UniProt Q57W25)
T1 sequence (Q57W25 1-332): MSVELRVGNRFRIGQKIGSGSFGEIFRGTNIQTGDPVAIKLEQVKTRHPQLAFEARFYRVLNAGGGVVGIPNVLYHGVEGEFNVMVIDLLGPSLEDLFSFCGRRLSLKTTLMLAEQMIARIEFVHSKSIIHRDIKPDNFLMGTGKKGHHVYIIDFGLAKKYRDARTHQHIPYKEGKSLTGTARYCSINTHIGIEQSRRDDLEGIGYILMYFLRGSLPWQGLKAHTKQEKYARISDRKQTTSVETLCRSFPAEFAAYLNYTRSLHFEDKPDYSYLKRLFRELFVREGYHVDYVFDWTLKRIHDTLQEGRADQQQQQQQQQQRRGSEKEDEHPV
Assay type: biochemical

| Structure (SMILES) | IC50 [nM] |
| --- | --- |
| Nc1nccc(-c2c(-c3ccc(F)cc3)ncn2C2CCCCC2)n1 [PF-670462] | 29.1 |
| NC(=O)c1ccc(-c2nc(-c3ccc4c(c3)OCO4)c(-c3ccccn3)[nH]2)cc1 [SB-431542] | 49.2 |

Reference: paper PMC12222847 (Scientific Reports, 2025)
